Legend:
primary DRG neurons = test: Axon growth of primary adult DRG neurons; type: cell-based, Sprague-Dawley rat; conditions: CH02 20 μM + Torin1 1 μM, 48 h, n = 62
Description: (§1) Figure 3 Effect of the CH02 peptide on axon growth and neuron survival. (A) Representative images of the CH02 peptide effect on axon growth in adult primary DRG neurons. DRG neurons were obtained from adult Sprague-Dawley rats. After 12-h of culture, neurons were stimulated with CH02 or bFGF for 48 h. Axonal outgrowth was assessed by immunocytochemistry using an antibody against β-tubulin, an axonal marker. Images were acquired from random neurons by fluorescence microscopy. Scale bars = 50 μm. (B) Quantification of the longest axon length of each neuron randomly selected in three independent experiments from (A), using Image-Pro Plus 6.0 software (n = 48 for each condition; *p < 0.05, ****p < 0.0001 by one-way ANOVA with Dunnett's test; ns, not significant; mean ± SD). (C) Representative images of the CH02 effect on axon growth in ex vivo cultured adult DRG explants. The axon is shown in fluorescence (β3-tubulin) images. Scale bars = 100 μm. (D) Quantification of axon growth of DRG explants from (C) using the Neurite-J software (n=4 for each condition; *control vs. CH02; #control vs. bFGF; *p < 0.05, **p < 0.01, ***p < 0.001, #p < 0.05, ##p < 0.01 by two-way ANOVA with Dunnett's test; ns, not significant; mean ± SEM). (E) Cell cytotoxicity assay of primary DRG neurons induced by H2O2. LDH released from damaged cell membranes was detected by an LDH assay kit. The results are expressed as the mean ± SEM (**p < 0.01 by one-way ANOVA with Dunnett's test; ns, not significant, compared with the control group). (F) Representative TUNEL staining of apoptotic neurons induced by H2O2 in the control, CH02, and FGF2 groups. Scale bars = 50 μm. Apoptotic neurons were detected by a TUNEL apoptosis assay kit. TUNEL (green); NeuN, neuronal marker (red); DAPI (blue). (G) Quantification of TUNEL-positive neurons from (F) (n = 3 for each condition; **p < 0.01 by one-way ANOVA with Dunnett's test; ns, not significant, compared with the control group). DRG neurons were obtained from adult Sprague-Dawley rats. […]

DRG explants = test: Axon growth of ex vivo cultured adult DRG explants; type: cell-based, Sprague-Dawley rat; conditions: CH02 20 μM + Torin1 1 μM, 4 days, n = 4
Description: as §1, with “(F) Representative TUNEL staining of apoptotic neurons induced by H2O2 in the control, CH02, and FGF2 groups. Scale bars = 50 μm.” left out, “TUNEL (green); NeuN, neuronal marker (red); DAPI (blue).” left out, “group).” for “group). DRG neurons were obtained from adult Sprague-Dawley rats.”
DRG explants were harvested from adult Sprague-Dawley rats (220-250 g) and placed in a 3.5 cm dish containing 2 mL of ice-cold neurobasal medium supplemented with 1 × B27, 4 mM Glutamax and 3× penicillin/streptomycin (Pen/Strep). […] After 7 days of culture, axon growth was measured. […]

[1] = test system: dorsal root injury (DRI) model; test: Von Frey test after dorsal root crush injury; type: in vivo, Sprague-Dawley rat; conditions: rats after C5-T1 dorsal root crush, up to 8 weeks, n = 5
Description: (§2) Animals were anesthetized by intraperitoneal injection of pentobarbital sodium (40 mg/kg body weight) and local injection of 0.5% lidocaine. Under sterile conditions, a skin incision between the C4 and T2 spinous processes was made using a no. 10 scalpel blade. Subsequent surgeries were performed under a stereomicroscope. The muscles attached to the lamina were separated and removed using a surgical blade and microscissors to expose the lamina. A right hemilaminectomy on the C5-T1 vertebrae was performed using a fine rongeur to expose the right C5-T1 DRGs and associated dorsal roots. After dura mater opening, a concurrent C5 -T1 dorsal root crush injury was performed using no. 7 forceps. The tines of the forceps were inserted above and below the root, halfway between the dorsal root ganglia and DREZ. […]
Animals treated with CH02 or FGF2 (n = 5 animals per group) were assessed using the following behavioral tests: […]
After an acclimation period, the animal was stimulated using a Von Frey-type 0.5 mm filament, which was placed below the center of the plantar surface of the tested paw with increasing pressure. On every test day, each foot (left front and right front) was measured 5 times at 5-min intervals, and the number of paw withdrawals was recorded.

[2] = test system: dorsal root injury (DRI) model; test: Plantar test after dorsal root crush injury; type: in vivo, Sprague-Dawley rat; conditions: rats after C5-T1 dorsal root crush, up to 8 weeks, n = 5
Description: as §2, with “DREZ. Each root was crushed three times, five times each, to ensure that the dorsal roots were crushed to sever all the axons within the root completely.” for “DREZ.”
Animals treated with CH02 or FGF2 (n = 5 animals per group) were assessed using the following behavioral tests:
Animals were acclimated to the testing room for at least 60 min before baseline testing, conducted before any surgical procedure. After dorsal root crush injuries, temperature sensation was measured twice a week for 8 weeks. […] Simultaneously, the paw withdrawal latency was recorded. […]

With CCC(=O)N1CCN(c2ccc(-n3c(=O)ccc4cnc5ccc(-c6cnc7ccccc7c6)cc5c43)cc2C(F)(F)F)CC1 [Torin1] the “effect of mTOR inhibitor on CH02-promoted axon growth, primary neurons” value (primary DRG neurons) was “greatly reduced the effect of the CH02 peptide in promoting axon growth” and the “effect of mTOR inhibitor on CH02-promoted axon growth, DRG explants” value (DRG explants) was “greatly reduced the effect of the CH02 peptide in promoting axon growth”.

In the case of FGF2, the pressure sensation recovery [1] is reported as “significantly improved” and the thermal sensation recovery [2] is reported as “significantly improved”.

— PMC8581430, “Peptide ligands targeting FGF receptors promote recovery from dorsal root crush injury via AKT/mTOR signaling” (Theranostics, 2021)
